# Laboratory results as given in patent publication US12629357B2, “Treatment of viral infections, of organ injury, and of related conditions using a HIF prolyl hydroxylase inhibitor or a HIF-alpha stabilizer” (Akebia Therapeutics, Inc., priority 2020, dated 2026).
# Test system: hospitalized patients with coronavirus disease 2019 (COVID-19)
# Test: multicenter, randomized, double-blind, placebo-controlled Bayesian adaptive clinical trial for prevention and treatment of ARDS
# Format: in vivo, human
# Description: This example describes use of 5-(3-chlorophenyl)-3-hydroxypyridine-2-carbonyl] amino} acetic acid (vadadustat) in a multicenter, randomized, double-blind, placebo-controlled Bayesian adaptive clinical for the prevention and treatment of acute respiratory distress syndrome (ARDS) in hospitalized patients with coronavirus disease 2019 (COVID-19).
# Inclusion criteria may include any or all of the following: • 1. Men and women ≥18 years of age. • 2. Laboratory-confirmed diagnosis of COVID-19 by detection of SARS-CoV-2 RNA by RT-PCR (reverse transcription polymerase chain reaction) from any specimen respiratory. • 3. Admitted to the hospital. • 4. Within 24 hours of hospital admission. • 5. Oxygen saturation of hemoglobin by pulse oximetry at room air ≤94%. • 6. Participation in any other clinical trial for the treatment for COVID-19 is not allowed. • 7. Understands the procedures and requirements of treatment and provides written informed consent and authorization for protected health information disclosure.
# • 1. Males with hemoglobin >17.5 g/dL or females >15.5 g/dL. • 2. Hypersensitivity to vadadustat or any of its excipients. • 3. Placed on mechanical ventilation before randomization. • 4. Hemoglobin above the gender specific upper limit of normal (ULN) at randomization. • 5. Aspartate aminotransferase (AST), alanine aminotransferase (ALT), or total bilirubin >2.0×ULN at randomization. • 6. Patients who have erythrocytosis or polycethemia vera. • 7. Patients receiving any of the following medications: sulfasalazine or other BCRP substrates, probenecid or other UGT and OAT1/3 inhibitors. • 8. Women who are pregnant or breastfeeding, or positive pregnancy test before randomization. • 9. Patients on maintenance dialysis. • 10. Patients who have received a solid organ transplant. • 11. Patients who are prisoners.
# Following screening, patients are randomized in a 1:1 ratio to either vadadustat 900 mg or placebo. Randomination is stratified by site, and MSOFA score at baseline (<4 and ≥4).
# A subject may receive vadadustat (e.g., 900 mg vadadustat as 6 tablets once daily) for 14 days and without regard for meals at approximately the same time each day. Tablets can be crushed using a pill crusher and administered to an intubated patient through a nasogastric tube.
# For example, the efficacy of vadadustat (e.g., 900 mg per day) for the prevention and treatment of ARDS among COVID-19 patients may be measured by ≥1 point deterioration on the NIAID ordinal scale for clinical improvement at day seven or day 14 of treatment.
# Efficacy may also be assessed according to any of the following (including any combination thereof): • 1. The proportion of patients at day 14 who are dead (8) or hospitalized, on invasive mechanical ventilation or ECMO (7) or hospitalized, on non-invasive ventilation or high flow oxygen devices (6) on the NIAID-OS. • 2. Proportions of patients with a score of 0 at 14 days on the MSOFA (Modified Sequential Organ Failure Assessment) scale:
# • 3. Average MSOFA scores at day 7 and day 14. • 4. Proportion of patients who develop ARDS or experienced increased ARDS severity from baseline based on the Berlin scale. • 5. Ventilator-free survival at day 7 and day 14. • 6. Overall survival at day 7 and day 14. • 7. Proportion of patients with hypotension (MAP (Mean Arterial Pressure)<70 mm Hg or requirement for inotropes or vasopressors to maintain blood pressure) at day 7 and day 14. • 8. Proportion of patients with acute kidney injury at day 7 and day 14. • 9. Time to hospital discharge.
# [1] = vadadustat 900 mg once daily for 14 days compared to placebo, day 7 and day 14
smiles,measurement,setting,value
"O=C(O)CNC(=O)c1ncc(-c2cccc(Cl)c2)cc1O [vadadustat, {[5-(3-chlorophenyl)-3-hydroxypyridine-2-carbonyl]amino}acetic acid]",proportion of patients who develop ARDS or experienced increased ARDS severity from baseline based on the Berlin scale,vadadustat 900 mg once daily for 14 days compared to placebo,a lower or a reduction
same,proportions of patients with a score of 0 at 14 days on the MSOFA,"vadadustat 900 mg once daily for 14 days compared to placebo, 14 days",an increase
same,average MSOFA scores at day 7 and day 14,[1],a lower or a reduction
same,number of overall survival at day 7 and day 14,[1],a greater or an increase
same,number of ventilator-free survival at day 7 and day 14,[1],a greater or an increase
same,proportion of patients with hypotension (MAP <70 mm Hg or requirement for inotropes or vasopressors to maintain blood pressure) at day 7 and day 14,[1],a lower or a reduction
same,time to hospital discharge,vadadustat 900 mg once daily for 14 days versus placebo,a shorter or a reduction
same,proportion of patients with acute kidney injury at day 7 and day 14,"vadadustat 900 mg once daily for 14 days versus placebo, day 7 and day 14",a lower or a reduction
